# Key:
# [1] = Relative cytotoxicity by MTS assay (CellTiter 96) of lipoplex-treated NIH 3T3 cells; type: cell-based; details: mouse, nih 3t3 cells, 1:1 lipid:DOPE, 2:1 charge ratio, FIG. 2, read-out: treated cells impaired
# Procedure: (§1) FIG. 2 is a bar graph showing luciferase transfection results as the mean (n=4) and standard deviation of total luciferase light units (RLU, left vertical axis) obtained from NIH 3T3 cells lysed after administration of […] of DNA. Relative cytotoxicity, depicted by the solid line, is plotted according to the right vertical axis, calculated as described in Example 3. With the exception of DOTAP, 1:1 cationic lipid:DOPE liposomes at a 2:1 molar charge ratio (lipid charge to DNA phosphate charge) were used for lipoplex formation. DOTAP was used without a co-lipid.
# (§2) Cell viability was determined by evaluating the […] dehydrogenase activity of post-transfected cells prior to lysis using the CellTiter 96 Aqueous Non-Radioactive Cell Proliferation Assay (Promega). The tetrazolium salt solution (Owen's Reagent; […]) was added to each well and the 24 well plate was then gently agitated to ensure complete mixing. After incubation for an additional 3-4 h, each well was assayed for formazan production by removing an aliquot of the medium and diluting with 9 parts phosphate buffered saline (PBS) solution. The dilution was conducted in a 1.5 mL methylacrylate UV/VIS disposable cell, and the relative amount of formazan was determined by taking absorbance reading at 490 nm using PBS as the reference. The mean (n=4) of the absorbance values was calculated and compared to the mean absorbance value for non-transfected cells. The final results were expressed in terms of relative cytotoxicity. Relative cytotoxicity was calculated by subtracting from one the ratio of mean absorbance value for transfected cells over mean absorbance value for untreated cells. A relative cytotoxicity value of zero implies no difference from untreated cells, no measurable cytotoxicity. The maximum value of one implies total cell death for treated cells, no measurable formazan production indicating significant toxicity. Negative values may reflect enhanced formazan production as a consequence of cell growth relative to untreated cells.
# (§3) To test whether (DMTM(Gly)) and (DOTM(GLY)) ameliorate lipid-induced cytotoxicity, a cell viability assay was performed. The relative cytotoxicity for these lipids and the popular transfection lipids DOTAP and DC-Chol was determined by measuring the […] dehydrogenase activity for lipoplex-treated cells. The comparative assay was performed using NIH 3T3 and 16HBE14o- cells, and the results are plotted in FIGS. 2 and 3, respectively. A requisite for evaluation of cytotoxicity is the concurrent determination of relative transfection activity. Thus, the cationic lipids were evaluated for relative cytotoxicity immediately prior to determination of luciferase activity. […]
# NIH 3T3 cells [2] = assay: as above; type: cell-based; details: 1:1 lipid:DOPE, 2:1 charge ratio, FIG. 2
# Procedure: as §1, §2, §3
# [3] = system: NIH 3T3 and 16HBE14o- cells; assay: Phase contrast microscopy of cells transfected with GFP lipoplexes; type: cell-based; details: for cell morphology by phase contrast: 48 h post-transfection, cell line not stated
# Procedure: (§4) Fluorescence experiments were conducted by transfecting the pEGFP-C1 C-Terminal protein fusion vector (Clontech, Palo Alto, Calif.) into NIH 3T3 and 16HBE14o- cells. The transfection protocol was identical to that of luciferase expression experiments in Example 1. Cells were grown for 48 h post-transfection, fixed with 3.7% formaldehyde, and viewed on a Zeiss ICM 405 inverted microscope with high resolution long-working distance objectives. Cells were photographed on the fluorescein channel and with phase contrast optics with a 40× water objective, using T-Max 400 (Kodak, Rochester, N.Y.) film.
# (§5) To probe relationships between cellular uptake, expression, and cytotoxicity, a transfection study was conducted using the GFP reporter gene. Fluorescent microscopy of cells treated with GFP-encoded plasmid is a sensitive tool for determining the occurrence of transgene expression. […] Thus, the onset of cytotoxicity precedes gene expression.
# [4] = system: NIH 3T3 and 16HBE14o- cells; assay: GFP reporter gene transfection (pEGFP-C1), fluorescence microscopy; type: cell-based; details: 48 h post-transfection
# Procedure: as §4, §5
# 16HBE14o- cells = assay: Luciferase transfection (pGL3-control plasmid), 16HBE14o- cells; type: cell-based, Human; details: FIG. 3
# Procedure: as §1, with “FIG. 3” for “FIG. 2”, “from 16HBE14o-” for “from NIH 3T3”
# (§6) a.) Liposome Formulation.
# (§7) The cationic lipid […] and DOPE […] were added as chloroform solutions to a 1.9 mL sample vial. The chloroform was evaporated using a stream of dry argon at room temperature. The resulting thin lipid films were placed under vacuum for 2-3 h to ensure that all traces of solvent were removed. Sterile water (1.0 mL) was then added to hydrate the lipid thin films, and the resultant suspension was vigorously mixed (vortex) at room temperature with occasional warming in a 60° C. water bath. The resultant 1.0 mM lipid suspension was used within 2 h of hydration.
# NIH 3T3 cells were obtained from ATCC (CRL 1658) and grown in Dulbecco's Modified Eagle's Medium (DMEM; GIBCO) with 10% fetal calf serum (GIBCO) in a humidified 10% CO2 incubator at 37° C. Human bronchial epithelial cells (16HBE14o-) were cultured in Eagle's modified essential medium (MEM; GIBCO) supplemented with 10% fetal bovine serum (GIBCO), 1% glutamine (GIBCO), 1% penicillin and streptomycin (GIBCO), and grown in a 5% humidified CO2 incubator at 37° C. […]
# Cationic lipid-DNA complexes were prepared 15-40 mins prior to transfection. The pGL3-control vector encoding for firefly luciferase (Promega, Madison, Wis.) was. slowly added to a diluted (DMEM or MEM) quantity of the cationic lipid:DOPE suspension in a polystyrene tube. […]
# (§8) Relative luciferase activity was determined by using the Enhanced Luciferase Assay Kit and a Moonlight 2010 luminometer (Analytical Luminescence Laboratories, Sparks, Md.). […]
# NIH 3T3 cells [5] = assay: Luciferase transfection (pGL3-control plasmid), NIH 3T3 cells; type: cell-based; details: for facilitating the intracellular delivery of plasmid DNA: Example 2 conclusion, luciferase plasmid
# Procedure: FIG. 1 is a bar graph showing the transfection activity of DMTM(Gly):DOPE liposomes as a function of the mole percent DOPE. DNA transfections were performed using NIH 3T3 cells. Lipoplexes were formulated at a 2:1 molar charge ratio (lipid charge to DNA phosphate charge). The values shown are the mean (n=4) and standard deviation of total luciferase light units (RLU) obtained from cells lysed after administration of […] DNA.
# as §1, §6, §7
# NIH 3T3 cells were obtained from ATCC (CRL 1658) and grown in Dulbecco's Modified Eagle's Medium (DMEM; GIBCO) with 10% fetal calf serum (GIBCO) in a humidified 10% CO2 incubator at 37° C. Human bronchial epithelial cells (16HBE14o-) were cultured in Eagle's modified essential medium (MEM; GIBCO) supplemented with 10% fetal bovine serum (GIBCO), 1% glutamine (GIBCO), 1% penicillin and streptomycin (GIBCO), and grown in a 5% humidified CO2 incubator at 37° C. Both cell lines were subcultured into sterile, untreated flasks.
# The NIH 3T3 cells were plated at 50,000 cells per well on a standard 24 well plate (Corning, Corning, N.Y.) 24 h prior to transfection. Cells were approximately 80% confluent at the time of transfection. The HBE cells were plated at 50,000 cells/well on a 24 well tissue culture plate coated with fibronectin, vitrogen (collagen), and bovine serum albumin as previously described (Gruenert, D. C., Basbaum C. B., and Widdicombe J. H. (1990) In Vitro Cell Dev Biol., 26, 411-418.) and were transfected as subconfluent monolayers 24 h prior to transfection. The growth media was removed via aspiration and each well was washed once with 0.5 mL buffered saline and overlaid with only MEM.
# Cationic lipid-DNA complexes were prepared 15-40 mins prior to transfection. The pGL3-control vector encoding for firefly luciferase (Promega, Madison, Wis.) was. slowly added to a diluted (DMEM or MEM) quantity of the cationic lipid:DOPE suspension in a polystyrene tube. (Falcon #2058), and the lipid-DNA complex was diluted to a final volume of […]. Typically (e.g. using DOTAP), […] of the lipid suspension was used to complex […] of the plasmid DNA, yielding a 2:1 cationic lipid:DNA phosphate molar ratio. Immediately on DNA addition, the suspension was vortexed and allowed to incubate for 15 min at room temperature. A […] aliquot of the resultant lipid-DNA suspension was added to each well […]. The treated cells were then incubated for 4 h at 37° C. Control wells were treated with […] of medium without supplement. At this time, […] of the appropriate growth media including 10% FCS was added to all wells and the cells cultured for 48 h prior to lysis and analysis.
# as §8
Compound,cytotoxicity [1] [%],cytotoxic response (MTS relative cytotoxicity) (NIH 3T3 cells [2]),cell morphology by phase contrast [3],"vacuolization compared with DOTM(Gly), DOTAP, or DMTM(Gly) ([3]; phase contrast)",GFP gene transfer (presence of fluorescent cells) [4],transfection activity compared with DOTAP and DC-Chol (16HBE14o- cells; 1:1 lipid:DOPE),facilitating the intracellular delivery of plasmid DNA (NIH 3T3 cells [5]),"transfection activity compared with DOTAP and DC-Chol (NIH 3T3 cells [5]; NIH 3T3, 1:1 lipid:DOPE, FIG. 2)","transfection activity on co-formulation with DOPE (DOPE titration) (NIH 3T3 cells [5]; NIH 3T3, equimolar lipid and DOPE, 2:1 molar charge ratio, FIG. 1)","effect of larger percentage DOPE on transfection activity (NIH 3T3 cells [5]; NIH 3T3, larger percentage DOPE than equimolar, FIG. 1)",expression in comparison to DOTAP and DC-Cholesterol (16HBE14o- cells; 1:1 lipid:DOPE (DOTAP without co-lipid)),"transfection activity compared with dimyristoyl analog (16HBE14o- cells; 1:1 lipid:DOPE, 2:1 charge ratio)","lipid:DOPE optimization results compared with DMTM(Gly) (NIH 3T3 cells [5]; DOPE titration, compared with DMTM(Gly):DOPE)","expression in comparison to DOTAP and DC-Cholesterol (NIH 3T3 cells [5]; NIH 3T3, 1:1 lipid:DOPE (DOTAP without co-lipid), FIG. 2)","transfection activity compared with dimyristoyl analog (NIH 3T3 cells [5]; NIH 3T3, 1:1 lipid:DOPE, 2:1 charge ratio, FIG. 2)"
"CC(C)CCC[C@@H](C)[C@H]1CC[C@H]2[C@@H]3CC=C4C[C@@H](OC(=O)NCCN(C)C)CC[C@]4(C)[C@H]3CC[C@]12C [DC-Chol, 3,β-(N-(N',N'-dimethylaminoethane)-carbamoyl)cholesterol, reference compound]",~60,significantly more cytotoxic,dense regions of large vacuoles,significantly greater vacuolization,active in facilitating gene transfer,–,–,–,–,–,–,–,–,–,–
"CCCCCCCCCCCCCC(=O)OCC(COC(=O)CCCCCCCCCCCCC)(COC(=O)C[N+](C)(C)C)COC(=O)C[N+](C)(C)C [DMTM(Gly), dimyristoyl bis(N,N,N-trimethylglycyl) tetraester]",–,did not induce a cytotoxic response,–,–,–,transfection activities similar to DOTAP and DC-Chol,capable of facilitating the intracellular delivery of plasmid DNA,transfection activities similar to DOTAP and DC-Chol,near optimal transfection activity,only negligible improvement,–,–,–,–,–
"CCCCCCCC/C=C\CCCCCCCC(=O)OCC(COC(=O)CCCCCCC/C=C\CCCCCCCC)(COC(=O)C[N+](C)(C)C)COC(=O)C[N+](C)(C)C [DOTM(Gly), dioleoyl bis (N,N,N-trimethylglycyl) tetraester]",–,did not induce a cytotoxic response,normal cellular morphology,–,active in facilitating gene transfer,–,capable of facilitating the intracellular delivery of plasmid DNA,–,–,–,reaching an order of magnitude greater expression,greater transfection activity than the dimyristoyl analog,similar,reaching an order of magnitude greater expression,greater transfection activity than the dimyristoyl analog

# Source: patent publication US6316421A, “Pentaerythritol lipid derivatives and nuleic-acid complexes” (The Regents of the University of California, priority 2000, dated 2001)
